Tested on in the first series: not given
Conditions: not given
Compound `COc1ccc(CNC(=O)c2ccc3c(c2)c(=O)n(Cc2ccc(CC(=O)O)cc2)c2nncn32)cc1` [Example 25, (4-{7-[(4-Methoxy)-benzylcarbamoyl]-5-oxo-5H-[1,2,4]triazolo[4,3-a]quinazolin-4-ylmethyl}-phenyl)-acetic acid] showed a melting point of 268 °C.

Compound `O=C(NCc1ccncc1)c1ccc2c(c1)c(=O)n(C/C=C/c1ccncc1)c1nncn21` [Example 19, N-(pyridin-4-ylmethyl) 4-[3-(pyridin-4-yl)-2-propen-1-yl]-5-oxo-4H-[1,2,4]triazolo[4,3-a]quinazol-7-ylcarboxamide] came in with a melting point of 250 °C. In the case of `COC(=O)Cc1ccc(Cn2c(=O)c3cc(C(=O)NCc4ccc(OC)cc4)ccc3n3cnnc23)cc1` [Example 17, Methyl (4-{7-[(4-methoxy)-benzylcarbamoyl]-5-oxo-5H-[1,2,4]triazolo[4,3-a]quinazolin-4-ylmethyl}-phenyl)-acetate], the melting point was found to be 204 °C. Compound `N#Cc1ccc(Cn2c(=O)c3cc(C(=O)NCc4ccncc4)ccc3n3cnnc23)cc1` [Example 15, N-(pyridin-4-ylmethyl)-4-(4-cyanobenzyl)-5-oxo-4H-[1,2,4]triazolo[4,3-a]quinazol-7-ylcarboxamide] showed a melting point of 300 °C. With `O=C(O)Cc1ccc(Cn2c(=O)c3cc(C(=O)NCc4ccc5c(c4)OCO5)ccc3n3cnnc23)cc1` [Example 26, (4-{7-[(1,3-Benzodioxol-5-ylmethyl)-carbamoyl]-5-oxo-5H-[1,2,4]triazolo[4,3-a]quinazolin-4-ylmethyl}-phenyl)-acetic acid], the melting point is 232 °C. `COC(=O)c1ccc(Cn2c(=O)c3cc(C(=O)NCc4ccc(OC)cc4)ccc3n3cnnc23)cc1` [Example 11, Methyl 4-{7-[(4-methoxybenzyl)-carbamoyl]-5-oxo-5H-[1,2,4]triazolo[4,3-a]quinazol-4-ylmethyl}benzoate] registered a melting point of 210 °C. Still for that read-out and setting: then `COC(=O)c1ccc(Cn2c(=O)c3cc(C(=O)NCc4ccc5c(c4)OCO5)ccc3n3cnnc23)cc1` [Example 10, Methyl 4-{7-[(1,3-benzodioxol-5-ylmethyl)-carbamoyl]-5-oxo-5H-[1,2,4]triazolo[4,3-a]quinazol-4-ylmethyl}benzoate], with 248 °C; and `O=C(O)c1ccc(Cn2c(=O)c3cc(C(=O)NCc4ccncc4)ccc3n3cnnc23)cc1` [Example 23, 4-{7-[(Pyridin-4-ylmethyl)-carbamoyl]-5-oxo-5H-[1,2,4]triazolo[4,3-a]quinazol-4-ylmethyl}benzoic acid], with 255 °C. Turning to `COC(=O)c1ccc(Cn2c(=O)c3cc(C(=O)NCc4ccncc4)ccc3n3cnnc23)cc1` [Example 12, Methyl 4-{7-[(pyridin-4-ylmethyl)-carbamoyl]-5-oxo-5H-[1,2,4]triazolo[4,3-a]quinazol-4-ylmethyl}benzoate], the melting point came to 235 °C.

For `O=C(O)c1ccc(Cn2c(=O)c3cc(C(=O)NCc4ccc5c(c4)OCO5)ccc3n3cnnc23)cc1` [Example 22, 4-{7-[(1,3-Benzodioxol-5-ylmethyl)-carbamoyl]-5-oxo-5H-[1,2,4]triazolo[4,3]quinazol-4-ylmethyl}benzoic acid], the melting point came to 235 °C. Same read-out and setting: to `O=C(O)c1ccc(Cn2c(=O)c3cc(C(=O)NCc4ccc(F)cc4)ccc3n3cnnc23)cc1` [Example 24, 4-{7-[(4-Fluoro)-benzylcarbamoyl]-5-oxo-5H-[1,2,4]triazolo[4,3-a]quinazol-4-ylmethyl}benzoic acid] belongs 303 °C; to `COc1ccc(CNC(=O)c2ccc3c(c2)c(=O)n(CCOc2ccc(Cl)cc2)c2nncn32)cc1` [Example 20, 4-[2-(4-Chloro-phenoxy)-ethyl]-5-oxo-4,5-dihydro-[1,2,4]triazolo[4,3-a]quinazoline-7-carboxylic acid 4-methoxy-benzylamide], 186 °C; to `CN(C)CCOC(=O)c1ccc(Cn2c(=O)c3cc(C(=O)NCc4ccc(F)cc4)ccc3n3cnnc23)cc1` [Example 13, (2-Dimethylamino-ethyl) 4-[7-(4-fluoro-benzylcarbamoyl)-5-oxo-5H-[1,2,4]triazolo[4,3-a]quinazol-4-ylmethyl]benzoate], 175 °C.

In the next series the test system is MMP-1, MMP-2, MMP-3, MMP-9 and MMP-13. Particulars: prior art compounds, collagenase, gelatinase and stromelysin type MMPs; cited from earlier work.
`CC1(C)SCCN(S(=O)(=O)c2ccc(Oc3ccncc3)cc2)[C@H]1C(=O)NO` [AG-3340]: the “inhibition of MMP-1, MMP-2, MMP-3, MMP-9 and MMP-13 (non-selective)” value was “simultaneously inhibit”.

As to `COc1ccc(S(=O)(=O)N(Cc2cccnc2)[C@@H](C(=O)NO)C(C)C)cc1` [CGS-27.023A], the “inhibition of MMP-1, MMP-2, MMP-3, MMP-9 and MMP-13 (non-selective)” value is reported as “simultaneously inhibit”.

The values are drawn from US6849637B2, “Triazolo compounds as MMP inhibitors” (Warner-Lambert Company, priority 2001, dated 2005).
